One test concerns the target PDZ1/2 domain. Briefly: SPR, Biacore 3000, PDZ1/2 amine-coupled on CM5 chip, peptide as analyte, 1:1 model.
In another test the test system is MCAO model rats. Briefly: Cerebral infarction volume (TTC staining) in MCAO model rats. Particulars: rat, in vivo. Here is the method:
The focal cerebral ischemia-reperfusion model was prepared according to the reversible middle cerebral artery occlusion (MCAO) suture method proposed by Longa with modifications in view of the anatomical structure of the rat brain. The rats were anesthetized by intraperitoneal administration of 10% chloral hydrate at a dose of […]. After anesthetization, a cut was created at the cervical midline, and the common carotid artery (CCA), external carotid artery (ECA) and pterygopalatine artery were exposed. The head portion (0.5 cm) of a monofilament nylon fishing line (0.26 mm) was coated with paraffin and a mark was made at 20 mm. All rats were inserted through the right CCA incision, and the pterygopalatine artery was temporarily clamped to prevent mis-insertion. The length of the occlusion line was about 18-20 mm from the bifurcation of CCA depending on the animal's weight, thereby occluding middle cerebral artery on the right side. The skin was then sewed, and the tail end of the occlusion line was partially fixed to the skin. After a period of ischemia for 2 hours, the occlusion line was carefully pulled out to form a reperfusion. The procedure steps for the sham control were the same as the surgery group, except for insertion of a nylon fishing line. The body temperature was maintained at 37±0.5° C. during the ischemia period and 2 h after reperfusion.
The used animals were male adult SD rats (Vittalia) of SPF grade with body weight of 220-250 g.
The experimental animals were divided into the negative control group, sham group, model group, positive drug Enbipu group, NA-1 group, YE-NA-1 group and P6 group. A saline solution, positive drug Enbipu, NA-1 (10 mg/kg), YE-NA-1 (10 mg/kg) and P6 (10 mg/kg, 3 mg/kg and 1 mg/kg) were respectively administered to individual group of rats via tail vein injection at 1 hour after ischemia. No drugs were administered to the normal group and the sham group.
The rats were sacrificed by decapitation after scoring. The brain tissues were quickly removed and placed in a refrigerator at −20° C. After 10 minutes, the tissues were placed in a room temperature environment. The brains were placed in a rat brain section mold. After the olfactory bulb, cerebellum and low brain stem were removed, the brains were coronally cut five times at 2 mm thickness as shown in the profile to obtain six continuous raw coronal slices. Then, the brain sections were quickly placed in a 5 ml solution containing 2% TTC, and incubated at 37° C. for 30 minutes in the dark, during which the brain sections were flipped once every 5 minutes. With the TTC staining, the normal tissue would be rose red, and the infarcted tissue would be unstained and retained white. Each group of brain sections was arranged neatly, and photographed. The photos were processed by an image analysis system software and statistically analyzed. The infarction area of each brain section was calculated, and multiplied by the thickness of each brain section (2 mm). The products of the infarction area of individual brain section multiplied by the thickness were summed to obtain the cerebral infarction volume for each animal. The volumes were expressed as percentages accounting for the cerebral hemisphere to eliminate the effects of cerebral edema.

The source of these data is patent US20190134150A1, “THERAPEUTIC METHODS FOR EXCITATORY NEUROTOXICITY-RELATED INJURIES” (Biocells (Beijing) Biotech Co., Ltd., priority 2016, published 2019).

Several values for one entry are separate records, joined by “and”; a condition that tells them apart may be missing. Equal values may be shown once. No end group written: not given here.

Turning to control chimeric peptide NA-1, the Kd (commonly a measure of binding affinity in units of concentration) with PDZ1/2 domain turned out to be 75.3 nM.
With “YGRKKRRQRRRYEKLSSIESDV [YE-NA-1, reference compound]”, the “Mean of infarction volume percentage” value in the test with MCAO model rats came out at 33.96%.
Regarding YGRKKRRQRRRYEKLTTLDTGGV [P6], the “Mean of infarction volume percentage” value in the test with MCAO model rats was 26.71% and 37.89% and 43.75%. In the test on MCAO model rats (1 mg/kg), the “Mean of infarction volume percentage” value is 41.56% and the “Reduction of infarction volume percentage vs model group” value is given as 9.57%. Moreover, in the test with MCAO model rats (3 mg/kg), the “Mean of infarction volume percentage” value is 38.34%, the “Reduction of infarction volume percentage vs model group” value came out at 16.58% and the “effect on cerebral infarction volume” value is on record as “desirably reduced the cerebral infarction volume”. In the test with MCAO model rats (10 mg/kg), the “Mean of infarction volume percentage” value was found to be 19.54%, the “Reduction of infarction volume percentage vs model group” value amounted to 57.48% and the “reduction of cerebral infarction volume” value is on record as “about 50%”.
On to “YGRKKRRQRRRKLSSIESDV [NA-1, reference compound]”, for which the “Mean of infarction volume percentage” value with MCAO model rats was found to be 38.56%.
Consider YGRKKRRQRRRYEKLSSIESDV [chimeric peptide YE-NA-1], for which, in the test with PDZ1/2 domain, the Kd came out at 54.4 nM.
